Test [1] relates to SKNSH cells. The experiment in a line: SKNSH (human neuroblastoma) cell proliferation assay (ATPlite). It is filed as cell-based. To be noted: SK-N-SH, read-out: Inhibition of Cell Proliferation IC50, SKNSH. As for the experimental part: Compounds are assessed in a variety of cell based assays. For example BaF3 cells engineered with any of BCR-FMS, BCR-KIT, BCR-FLT3, BCR-NTRK1, BCR-NTRK2, and BCR-NTRK3, are used in cell proliferation assays to assess inhibitory activity of Fms, Kit, Flt-3, TrkA, TrkB, and TrkC, respectively. An MV-4-11 (leukemia) cell proliferation assay is used to assess inhibitory activity in Flt-3, and SKNSH (human neuroblastoma) cell proliferation assay is used to assess efficacy of Fms/Trk inhibitors. Additional cells may be assayed similarly to assess the efficacy of Fms/Trk inhibitors, such as MiaPaCa (human pancreatic cancer) and Capan-1 (human pancreatic carcinoma) cells. Reagent and assay conditions are as follows: • BaF3 cells: • Maintained in RPMI containing 10% FBS, 1% PenStrep, 1% NEAA, and 1% L-Glutamine, supplemented with 1 mg/mL G418 and 5% WEHI-CM (or recombinant murine IL-3). • Confluent cells are split 1:50 to 1:100 every 3-4 days. • MV-4-11 cells: • Maintained in Iscove's Modified Dulbecco's Medium containing 10% FBS. • Confluent cells are split 1:4 every 3-4 days. • SKNSH cells: RPMI containing 10% FBS. On day 1, cells are counted, then centrifuged in a conical tube for 5 minutes at 1000 rpm. The supernatant is removed and cells are re-suspended as follows: • BaF3: resuspend in growth media +1 mg/mL G418 (without WEHFIL-3) to 2×10^5 cells/mL. • MV-4-11: resuspend in growth media to 5×10^5 cells/mL. • SKNSH: resuspend in growth media to 2×10^4 cells/mL. The cells are plated (50 μL, 150 μL for SKNSH cells) in each well of a 96-well dish (Corning 3610) and incubated at 37° C. in 5% CO2 overnight, cells plated to a final concentration of cells as follows: • BaF3: 10,000 cells per well. • MV-4-11: 25,000 cells per well. • SKNSH: 3,000 cells per well. On day 2, compound at a maximum concentration of 5 mM is serially diluted 1:3 for a total of 8 point titration with DMSO as a control. A 1 μL aliquot of each dilution point is added to 249 μL growth media and 50 μL is added to a well containing cells, providing 10 μM compound for the maximum concentration point. The cells are incubated for 3 days at 37° C. in 5% CO2. For SKNSH cells, a 0.75 μL aliquot of appropriate dilution in DMSO is added to 150 μL of cells. On day 5, ATPlite 1 step Luminescence Assay System (Perkin Elmer #6016739) is brought to room temperature along with the cell cultures. ATPlite is added to each well as follows: • BaF3: 25 μL per well. • MV-4-11: 40 μL per well. • SKNSH: 20 μL per well. The cells are incubated at room temperature for 10 minutes, then luminescence is read on Safire reader. The measured luminescence correlates directly with cell number, such that the reading as a function of compound concentration is used to determine the IC50 value.
It is understood that the results of these assays may vary as assay conditions are varied. Inhibition levels determined under the conditions described herein represent a relative activity for the compounds tested under the specific conditions employed. The cell based assays are likely to show variability due to the complexity of the system and the sensitivity thereof to any changes in the assay conditions. […] Results for compounds that are tested and show substantially no inhibition below the highest tested concentration are represented as “-” in the tables below. In some instances, the compounds were not tested in all of the assays, or assay results were not valid, as indicated by NA in the tables below.

Test [2] deals with T1, CYP1A2 (Homo sapiens, UniProt P05177).
T1 sequence (P05177 1-516): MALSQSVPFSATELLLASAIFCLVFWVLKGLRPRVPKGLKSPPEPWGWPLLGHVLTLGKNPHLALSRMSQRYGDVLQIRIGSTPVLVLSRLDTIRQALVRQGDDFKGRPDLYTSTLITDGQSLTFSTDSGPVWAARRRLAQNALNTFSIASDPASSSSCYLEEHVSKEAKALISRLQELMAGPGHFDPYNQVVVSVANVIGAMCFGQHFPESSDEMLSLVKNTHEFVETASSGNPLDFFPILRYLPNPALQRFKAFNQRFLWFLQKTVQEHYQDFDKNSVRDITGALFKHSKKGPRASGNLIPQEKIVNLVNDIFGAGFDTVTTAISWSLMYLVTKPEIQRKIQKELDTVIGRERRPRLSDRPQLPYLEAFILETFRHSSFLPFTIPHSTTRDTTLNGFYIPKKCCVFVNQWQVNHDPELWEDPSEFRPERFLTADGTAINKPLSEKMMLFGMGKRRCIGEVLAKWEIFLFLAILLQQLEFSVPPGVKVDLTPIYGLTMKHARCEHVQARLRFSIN
The experiment in a line: CYP1A2 inhibition (fluorescent substrate CEC). In kind it is in vitro ADME. To be noted: read-out: Cyp IC50 1A2. As for the experimental part:
CYP (Cytochrome P450) enzymes are the major drug metabolizing enzymes present in the liver. The inhibition of CYP enzyme activity (IC50) for each of CYP1A2, CYP2C19, CYP2C9, CYP2D6, CYP3A4(BFC) and CYP3A4(BQ) is determined for compounds, where inhibition of metabolism of a known substrate leads to a decrease in the fluorescence of the metabolized product. The fluorescence of the product is monitored as a function of compound concentration. Compounds are dissolved in DMSO to a concentration of 100 mM. These are diluted 1 μL into 82 μL of acetonitrile. An 11 μL aliquot of this solution is then added to 204 μL of cofactor mix (1.3% NADPH Regeneration system Solution A, 1.04% NADPH Regeneration system Solution B from BD Biosciences, 5% acetonitrile and 0.05% DMSO). These are then serially diluted 1:1 (160 μL to 160 μL co-factor mix) for a total of 10 points. A 10 μL aliquot of this final mixture is dispensed into 384 well assay plates and incubated for 10 minutes at 37° C. […] Assay plates are incubated at 37° C. (CYP1A2-15 min; CYP2C9-45 min; CYP2C19, 2D6 and 3A4-30 min) and read in a Tecan Safire 2 plate reader (CYP1A2, 2C19 and 3A4 409 ex/460 em; CYP2C9 and 2D6 409 ex/530 em). The signal versus compound concentration is used to determine the IC50. The enzymes and substrates for this assay are obtained from BD Biosciences.

These results are taken from patent US8901118B2, “Compounds and methods for kinase modulation, and indications therefor” (Plexxikon Inc., priority 2010, dated 2014).

In the case of `COc1ccc(Nc2ccc(C(=O)c3c[nH]c4ncnc(NC(C)(C)C)c34)c(F)n2)cn1` [Compound P-4055, [4-(tert-butylamino)-7H-pyrrolo[2,3-d]pyrimidin-5-yl]-[2-fluoro-6-[(6-methoxy-3-pyridyl)amino]-3-pyridyl]methanone], the figures for the IC50 in test [1] and in test [2] were less than 1 µM and less than 10 µM, respectively.
Consider `COc1ccc(Nc2ccc(C(=O)c3c[nH]c4ncnc(NC5CCC(F)(F)CC5)c34)c(F)n2)cn1` [Compound P-4056, [4-[(4,4-difluorocyclohexyl)amino]-7H-pyrrolo[2,3-d]pyrimidin-5-yl]-[2-fluoro-6-[(6-methoxy-3-pyridyl)amino]-3-pyridyl]methanone], for which the values for the IC50 in test [1] and in test [2] were less than 1 µM and greater than 10 µM, respectively.
Turning to `O=C(c1ccc(NC2CCC(F)(F)CC2)nc1Cl)c1c[nH]c2ncnc(NCC(F)(F)F)c12` [Compound P-4057, [2-chloro-6-[(4,4-difluorocyclohexyl)amino]-3-pyridyl]-[4-(2,2,2-trifluoroethylamino)-7H-pyrrolo[2,3-d]pyrimidin-5-yl]methanone], the figures for the IC50 in test [1] and in test [2] were less than 10 µM and greater than 10 µM, respectively.
For the molecule `CNc1ncnc2[nH]cc(C(=O)c3ccc(NC4CCC(F)(F)CC4)nc3Cl)c12` [Compound P-4058, [2-chloro-6-[(4,4-difluorocyclohexyl)amino]-3-pyridyl]-[4-(methylamino)-7H-pyrrolo[2,3-d]pyrimidin-5-yl]methanone], the IC50 was less than 10 µM in test [1] and greater than 10 µM in test [2].
With `O=C(c1ccc(NC2CCC(F)(F)CC2)nc1Cl)c1c[nH]c2ncnc(NC3CC3)c12` [Compound P-4059, [2-chloro-6-[(4,4-difluorocyclohexyl)amino]-3-pyridyl]-[4-(cyclopropylamino)-7H-pyrrolo[2,3-d]pyrimidin-5-yl]methanone], the results for the IC50 in test [1] and in test [2] were less than 1 µM and greater than 10 µM, respectively.
Taken in the same sequence, the figures for `CCNc1ncnc2[nH]cc(C(=O)c3ccc(Nc4ccc(C5CC5)nc4)nc3F)c12` [Compound P-4060, [6-[(6-cyclopropyl-3-pyridyl)amino]-2-fluoro-3-pyridyl]-[4-(ethylamino)-7H-pyrrolo[2,3-d]pyrimidin-5-yl]methanone] were less than 0.1 µM and greater than 10 µM.
`O=C(c1ccc(NC2CCC(F)(F)CC2)nc1F)c1c[nH]c2ncnc(NC3CC3)c12` [Compound P-4062, [4-(cyclopropylamino)-7H-pyrrolo[2,3-d]pyrimidin-5-yl]-[6-[(4,4-difluorocyclohexyl)amino]-2-fluoro-3-pyridyl]methanone]: the IC50 in test [1] is less than 1 µM; in test [2], greater than 10 µM.
For `CNc1ncnc2[nH]cc(C(=O)c3ccc(NC4CCC(F)(F)CC4)nc3F)c12` [Compound P-4063, [6-[(4,4-difluorocyclohexyl)amino]-2-fluoro-3-pyridyl]-[4-(methylamino)-7H-pyrrolo[2,3-d]pyrimidin-5-yl]methanone], the results for the IC50 in test [1] and in test [2] were less than 1 µM and greater than 10 µM, respectively.
`CCc1ccc(Nc2ccc(C(=O)c3c[nH]c4ncnc(N)c34)c(F)n2)cn1` [Compound P-4065, (4-amino-7H-pyrrolo[2,3-d]pyrimidin-5-yl)-[6-[(6-ethyl-3-pyridyl)amino]-2-fluoro-3-pyridyl]methanone]: the IC50 was less than 1 µM in test [1] and greater than 10 µM in test [2].
Consider `COc1ccc(Nc2ccc(C(=O)c3c[nH]c4ncnc(NCC(F)(F)F)c34)c(F)n2)cn1` [Compound P-4084, [2-fluoro-6-[(6-methoxy-3-pyridyl)amino]-3-pyridyl]-[4-(2,2,2-trifluoroethylamino)-7H-pyrrolo[2,3-d]pyrimidin-5-yl]methanone], for which the IC50 in test [1] was less than 10 µM; in test [2], greater than 10 µM.
For `CNc1ncnc2[nH]cc(C(=O)c3ccc(NC4CCC(F)(F)CC4)nc3)c12` [Compound P-4089, [6-[(4,4-difluorocyclohexyl)amino]-3-pyridyl]-[4-(methylamino)-7H-pyrrolo[2,3-d]pyrimidin-5-yl]methanone] the same measures were less than 10 µM and greater than 10 µM.
Consider `O=C(c1ccc(Nc2ccc(C3CC3)nc2)nc1F)c1c[nH]c2ncnc(NCC(F)(F)F)c12` [Compound P-4090, [6-[(6-cyclopropyl-3-pyridyl)amino]-2-fluoro-3-pyridyl]-[4-(2,2,2-trifluoroethylamino)-7H-pyrrolo[2,3-d]pyrimidin-5-yl]methanone], for which the figures for the IC50 in test [1] and in test [2] were less than 1 µM and greater than 10 µM, respectively.
For `O=C(c1ccc(Nc2ccc(C(F)(F)F)nc2)nc1F)c1c[nH]c2ncnc(NC3CC3)c12` [Compound P-4091, [4-(cyclopropylamino)-7H-pyrrolo[2,3-d]pyrimidin-5-yl]-[2-fluoro-6-[[6-(trifluoromethyl)-3-pyridyl]amino]-3-pyridyl]methanone] the same measures were less than 0.1 µM and greater than 10 µM.
Consider `CNc1ncnc2[nH]cc(C(=O)c3ccc(Nc4ccc(C(F)(F)F)nc4)nc3F)c12` [Compound P-4092, [2-fluoro-6-[[6-(trifluoromethyl)-3-pyridyl]amino]-3-pyridyl]-[4-(methylamino)-7H-pyrrolo[2,3-d]pyrimidin-5-yl]methanone], for which the values for the IC50 in test [1] and in test [2] were less than 1 µM and less than 5 µM, respectively.
Consider `CNc1ncnc2[nH]cc(C(=O)c3ccc(Nc4ccc(C5CC5)nc4)nc3F)c12` [Compound P-4094, [6-[(6-cyclopropyl-3-pyridyl)amino]-2-fluoro-3-pyridyl]-[4-(methylamino)-7H-pyrrolo[2,3-d]pyrimidin-5-yl]methanone], for which the figures for the IC50 in test [1] and in test [2] were less than 1 µM and less than 5 µM, respectively.
On to `CCc1ccc(Nc2ccc(C(=O)c3c[nH]c4ncnc(NC5CC5)c34)c(F)n2)cn1` [Compound P-4125, [4-(cyclopropylamino)-7H-pyrrolo[2,3-d]pyrimidin-5-yl]-[6-[(6-ethyl-3-pyridyl)amino]-2-fluoro-3-pyridyl]methanone], for which, in test [2], the IC50 is greater than 10 µM.
